Data set [1] deals with Fibroblast Activation Protein alpha (FAP) (Mus musculus (Mouse), UniProt P97321). Description: in vivo.
Protocol: The effect of test compound on FAP enzyme activity in mouse plasma was evaluated in an enzymatic assay using the Fibroblast Activation Protein alpha (FAP) specific fluorogenic substrate dipeptide-Coumarin, Ala-Pro-AMC, (ARI-3144).
Male C57Bl/6 mice (Charles River, Germany), 8 weeks of age, were single housed in a temperature-controlled room with a 12-hour light/dark cycle (06:00-18:00 light). The mice had ad libitum access to water and rodent chow diet (R70, Lactamin, Kimstad, Sweden), and were acclimated for 5 days upon arrival. After acclimation, all mice received a single oral dose of test compound (3 or 10 mg/kg). Blood samples for whole blood compound exposure measurements were taken at 0.25, 0.5, 1, 2, 4, 8 and 24 h post oral dosing. Samples were collected in EDTA capillary tubes (20 μL, K2E, REF 19.447) and were transferred to a 96-deep well plate (NUNC, Thermo Discher Scientific) and stored at −20° C. until further analyses were performed. Blood samples for plasma FAP enzyme activity measurements were taken at 0, 0.25, 0.5, 1, 2, 8 and 24 h post dosing. 25 μL of whole blood was collected in EDTA Microvette® CB 300 (K2E, REF 16.444.100) tubes, and were centrifuged at 4,000×g for 5 min. 10 μL of plasma was then transferred to PCR tubes and stored at −20° C. until further analysis was performed. All blood samples were taken by vena saphena puncture.
Recombinant human FAP (PB-17-1837, construct PL-17-0278, cd33-FAP (27-757)-6His, Mw85926 Da) was used as a standard for this assay. […] The plates were read on a Beckman Paradigm reader with excitation 360 nm and emission 465 nm. Fluorescence measurements were performed with kinetic read every 5 minutes for 60 min at room temperature. Data were analyzed in Excel (IDBS XLfit Add-In) using a Linear Regression (y=k*x+m) model to prepare a human recombinant FAP standard curve.
On the day of the assay, plasma was diluted (1:2) to 20 μL volume in buffer (PBS, 0.1% BSA) and 7.5 μL was transferred to the assay plate (384-well black, fluotrack PS, Greiner 781076). Ala-Pro-AMC (stock solution in 10 mM DMSO) was diluted in buffer (PBS, 0.1% BSA) to 150 μM concentration (180 μL stock solution to 12 mL buffer) and 7.5 μL added to the assay plate followed by a pipetting mix. The plates were read on a Beckman Paradigm reader with excitation 360 nm and emission 465 nm. Fluorescence measurements were performed with kinetic read every 5 minutes for 60 minutes at room temperature. As noted above, FAP cleaves Ala-Pro-AMC to release free AMC which is measured as a fluorescent signal.
The in vivo potency IC50 of each test compound was then estimated by relating the plasma exposure C of the compound to target engagement E in plasma using the following equation:
where E0 is the FAP baseline in plasma prior to dosing and Imax is the maximum effect of the compound. Data from each target engagement experiment were considered separately and therefore slightly different estimates of FAP baseline for each compound were obtained. […] The parameter estimation was done in Phoenix WinNonlin Certara build 8.1.0.3530 with the algorithm ‘Naïve pooled’ as parameter estimation method.
Data set [2] addresses FAP (Mus musculus (Mouse), UniProt P97321). Description: FAP plasma inhibition assay, mouse plasma. The class given is biochemical. The note with it: mouse plasma diluted 1:67, Ala-Pro-AMC 75 μM. The essentials: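 K2EDTA plasma served as enzyme source, human diluted 1:40 and mouse 1:67, in PBS with 0.1% BSA. Compounds ran as a 10-point 3-fold series from 500 nM final, in duplicate, 40 min at rt in the dark, with fluorescence read against a pre-substrate blank. IC50 came from % inhibition versus log concentration.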

In data set [3] the target is Prolyl endopeptidase, Prolyl Oligopeptidase (hPREP) (Homo sapiens (Human), UniProt P48147). Description: hPrep inhibition assay. Conditions: hPREP 0.6 nM, Z-Gly-Pro-amino-methylcoumarin 50 μM; read-out: PREP IC50. The class given is biochemical. The essentials:
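Fluorogenic read-out (340 nm excitation, 460 nm emission) after 20 min at rt, using 50 μM final Z-Gly-Pro-aminomethylcoumarin and 0.6 nM final enzyme, following 15 min compound preincubation. Buffer pH 7.5 with glutathione and Triton X-100. IC50 via one-site model on % inhibition vs log concentration.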

Another data set deals with hFAP (M39-A757) (Homo sapiens (Human), UniProt Q12884). Description: hFAP binding assay (surface plasmon resonance). Conditions: SPR, 20° C.; for hFAP Binding assay k(off) / hFAP Binding assay k(on): single cycle kinetics; for Kd: n = 1 or geometric mean n = 2-4.
Data set [4] concerns the target human dipeptidylpeptidase 7 (hDPP7) (Homo sapiens (Human), UniProt Q9UHL4). Description: hDPP7 inhibition assay. It counts as biochemical. Conditions: hDPP7 15 nM, Ala-Pro-amino-methylcoumarin 5 μM, n = 1. The protocol:
Compounds were tested in a biochemical inhibition assay using human dipeptidylpeptidase 7 (hDPP7) enzyme at 15 nM FAC (BPS Bioscience, #80070) and the substrate Ala-Pro-amino-methylcoumarin (BPS Bioscience, #80305) at 5 μM FAC. The enzymatic reactions were conducted in duplicate at rt for 30 min in 50 μL DPP assay buffer (BPS Bioscience, #80300). Compound solutions (in DMSO) at 10 CR, 3 fold dilution series were prepared in assay buffer ten-fold higher than the final concentration, and 5 μL of the dilution was added to a 50 μL reaction so that the highest compound concentration was 100 μM FAC and the concentration of DMSO was 1% in all wells. The plates were read on a Tecan Infinite M1000 microplate reader with excitation 340 nm and emission 460 nm. Data were analyzed in Graph Pad Prism. IC50 values were determined by plotting % inhibition versus log compound concentration and using a one site dose response model. Raw data signals were normalized using 1% DMSO as 0% control and no enzyme as 100% inhibitor control.

Data set [5] can be described thus: Metabolic stability in rat hepatocytes (rHep). Conditions: n = 1 or geometric mean of n = 2-3.
Data set [6] can be described thus: Metabolic stability in human liver microsomes (HLM). The note with it: human. (Microsomes from liver hold many membrane-bound enzymes, among them those of drug oxidation.)
Protocol: Metabolic stability in HLM was measured as described in J Comput Aided Mol Des 2015, 29, 795.
Another data set is described as follows: Kinetic solubility. The note with it: kinetic from dmso stock.
The target of data set [7] is T1, FAP (Homo sapiens (Human), UniProt Q12884). Description: hFAP inhibition assay. The class given is biochemical. Conditions: hFAP […], Ala-Pro-AMC 20 μM; n = 1 or geometric mean n = 2-3. The essentials: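 Compounds (10-point, 3-fold dilutions from 50 μM top) were preincubated 15 min at rt in the dark with 0.48 nM hFAP in pH 7.4 Tris/NaCl/Chaps buffer. Reaction was started with substrate (40 μM solution) and ran 30 min at rt. Read by fluorescence (340/460 nm); IC50 from one-site fit.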
Target sequence in this assay (Q12884 38-760): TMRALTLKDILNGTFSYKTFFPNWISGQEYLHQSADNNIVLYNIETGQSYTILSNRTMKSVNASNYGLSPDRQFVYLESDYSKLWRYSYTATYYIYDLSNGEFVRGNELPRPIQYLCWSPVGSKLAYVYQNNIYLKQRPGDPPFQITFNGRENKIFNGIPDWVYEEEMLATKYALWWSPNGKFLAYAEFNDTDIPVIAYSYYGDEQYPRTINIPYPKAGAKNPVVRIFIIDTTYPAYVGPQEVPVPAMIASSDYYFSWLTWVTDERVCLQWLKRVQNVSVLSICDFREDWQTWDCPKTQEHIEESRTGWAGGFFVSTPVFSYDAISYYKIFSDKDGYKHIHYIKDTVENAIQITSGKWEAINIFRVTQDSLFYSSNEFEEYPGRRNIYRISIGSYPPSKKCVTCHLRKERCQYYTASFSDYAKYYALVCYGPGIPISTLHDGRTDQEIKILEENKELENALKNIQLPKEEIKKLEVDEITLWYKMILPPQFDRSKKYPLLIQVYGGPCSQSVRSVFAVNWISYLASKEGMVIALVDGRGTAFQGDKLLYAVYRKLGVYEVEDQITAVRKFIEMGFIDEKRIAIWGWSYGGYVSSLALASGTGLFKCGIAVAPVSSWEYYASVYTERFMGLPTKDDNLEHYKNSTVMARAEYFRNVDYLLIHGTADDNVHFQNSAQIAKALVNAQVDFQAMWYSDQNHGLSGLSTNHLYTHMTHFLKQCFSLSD

The target in data set [8] is human Fibroblast activation protein alpha (hFAP) (Homo sapiens (Human), UniProt Q12884). Kind of data set: hFAP inhibition assay (tight binders). Note: hFAP 2.4 pM. The class given is biochemical. Conditions: Ala-Pro-AMC 20 μM, n = 1 or geometric mean n = 2-6. As to the method:
The plates were read on a PHERAstar® reader with excitation 340 nm and emission 460 nm. Data were analyzed in Genedata Screener®. IC50 values were determined by plotting % inhibition versus log compound concentration and using a one site dose response model.

Data set [9] has as its target T1, FAP. Kind of data set: FAP plasma inhibition assay, human plasma. The class given is biochemical. The note with it: human plasma diluted 1:40, Ala-Pro-AMC 75 μM. The protocol: This assay was adapted from the method described in Example 237 for detection of FAP target engagement enzyme activity in plasma. Plasma (anticoagulant K2EDTA) was used as the enzyme source: Human plasma (Pooled from AZ Biobank), Mouse plasma (AZ AST Biobank), and Cynomolgus plasma (BioIVT, #NHP00PLK2FNN, lot CYN222895). 384-Well black fluotrack PS plates (Greiner 781076) were used. 20 μL diluted plasma (Cynomolgus and Human plasma dilution 1:40, Mouse plasma dilution 1:67) in buffer (PBS, 0.1% BSA) was added to 0.6 μL compounds (in DMSO). Compounds were tested using 10 CR, 3 fold dilution series from 500 nM FAC. Two replicates for each assay point were run on the same plate. A fluorescence blank read was taken before substrate addition. […] Plates were incubated for 40 min at rt in the dark. […] IC50 values were determined by plotting % inhibition versus log compound concentration.
Target sequence in this assay (Q12884 24-760): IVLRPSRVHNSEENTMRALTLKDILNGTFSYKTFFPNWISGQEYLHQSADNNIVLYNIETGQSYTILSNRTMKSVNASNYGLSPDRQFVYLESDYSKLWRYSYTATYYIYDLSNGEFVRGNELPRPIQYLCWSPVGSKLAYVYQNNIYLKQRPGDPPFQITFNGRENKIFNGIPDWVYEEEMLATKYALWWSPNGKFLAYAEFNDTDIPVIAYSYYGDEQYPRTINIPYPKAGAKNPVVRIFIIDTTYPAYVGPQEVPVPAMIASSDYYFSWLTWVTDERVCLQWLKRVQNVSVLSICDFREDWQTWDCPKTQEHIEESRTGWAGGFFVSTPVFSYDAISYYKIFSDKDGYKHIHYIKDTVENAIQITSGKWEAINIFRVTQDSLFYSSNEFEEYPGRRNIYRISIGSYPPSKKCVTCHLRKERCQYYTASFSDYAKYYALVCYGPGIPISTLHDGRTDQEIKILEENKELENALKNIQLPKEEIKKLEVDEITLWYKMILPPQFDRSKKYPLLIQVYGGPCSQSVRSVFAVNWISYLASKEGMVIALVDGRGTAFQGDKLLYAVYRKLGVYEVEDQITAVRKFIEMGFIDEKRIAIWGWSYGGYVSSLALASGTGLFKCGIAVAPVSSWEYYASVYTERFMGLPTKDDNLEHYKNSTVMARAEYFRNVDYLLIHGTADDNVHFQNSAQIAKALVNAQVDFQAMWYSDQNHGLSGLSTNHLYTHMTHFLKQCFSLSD

Another data set in a line: Caco-2 cell permeability. Conditions: human. On the technique in general: Caco-2 cells form a polarised layer with tight junctions and transporters.
Data set [10] can be described thus: Metabolic stability in human hepatocytes (hHep). Conditions: n = 1 or geometric mean of n = 2. The class given is in vitro ADME.
[11] abbreviates: HLM CLint, n = 1 or average of n = 2-3.
The mark [12] stands for this setting: Solubility, kinetic solubility, n = 1 or average of n = 2-3.

Values after ≈ are worked out from the molar mass of the structure shown.

Sequence of Prolyl endopeptidase, Prolyl Oligopeptidase (hPREP) (P48147 whole entry): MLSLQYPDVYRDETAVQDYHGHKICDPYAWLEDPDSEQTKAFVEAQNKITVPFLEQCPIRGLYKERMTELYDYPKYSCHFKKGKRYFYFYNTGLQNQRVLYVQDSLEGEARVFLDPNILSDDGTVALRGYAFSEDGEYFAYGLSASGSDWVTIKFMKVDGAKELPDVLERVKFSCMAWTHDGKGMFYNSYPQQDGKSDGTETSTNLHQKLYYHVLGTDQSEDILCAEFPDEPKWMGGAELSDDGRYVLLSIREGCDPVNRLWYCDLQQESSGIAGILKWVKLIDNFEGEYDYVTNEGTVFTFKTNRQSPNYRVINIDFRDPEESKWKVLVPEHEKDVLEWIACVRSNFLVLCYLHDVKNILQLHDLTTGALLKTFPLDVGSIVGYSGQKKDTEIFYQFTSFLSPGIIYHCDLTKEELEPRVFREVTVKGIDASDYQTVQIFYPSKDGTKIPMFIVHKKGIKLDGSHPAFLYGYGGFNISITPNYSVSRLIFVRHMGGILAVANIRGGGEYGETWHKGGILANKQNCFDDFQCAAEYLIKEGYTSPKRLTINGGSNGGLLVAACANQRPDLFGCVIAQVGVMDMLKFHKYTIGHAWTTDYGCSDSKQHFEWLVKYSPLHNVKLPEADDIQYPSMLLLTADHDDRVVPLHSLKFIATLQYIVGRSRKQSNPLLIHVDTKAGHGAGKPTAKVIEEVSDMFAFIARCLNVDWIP
Sequence of FAP (Mus musculus (Mouse), UniProt P97321) (P97321 24-761): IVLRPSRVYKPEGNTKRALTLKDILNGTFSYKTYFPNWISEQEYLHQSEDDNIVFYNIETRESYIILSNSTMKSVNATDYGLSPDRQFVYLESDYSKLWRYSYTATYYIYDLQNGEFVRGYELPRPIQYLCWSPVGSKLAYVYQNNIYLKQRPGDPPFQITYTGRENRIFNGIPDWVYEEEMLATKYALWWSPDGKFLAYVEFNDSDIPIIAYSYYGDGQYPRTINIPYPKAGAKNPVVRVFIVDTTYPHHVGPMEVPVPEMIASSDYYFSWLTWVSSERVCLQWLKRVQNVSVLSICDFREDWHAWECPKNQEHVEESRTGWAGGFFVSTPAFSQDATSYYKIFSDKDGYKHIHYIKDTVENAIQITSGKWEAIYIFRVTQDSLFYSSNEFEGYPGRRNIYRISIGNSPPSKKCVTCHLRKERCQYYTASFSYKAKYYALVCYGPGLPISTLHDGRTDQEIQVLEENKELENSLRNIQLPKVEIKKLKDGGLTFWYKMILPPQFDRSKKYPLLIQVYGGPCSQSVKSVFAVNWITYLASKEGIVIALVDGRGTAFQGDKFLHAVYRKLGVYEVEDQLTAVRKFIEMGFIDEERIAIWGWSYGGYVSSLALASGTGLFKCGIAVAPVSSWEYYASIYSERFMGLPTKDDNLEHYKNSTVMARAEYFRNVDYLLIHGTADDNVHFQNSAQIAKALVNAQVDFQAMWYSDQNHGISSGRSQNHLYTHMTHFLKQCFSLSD
Sequence of Fibroblast Activation Protein alpha (FAP) (P97321 24-761): as above
Sequence of human Fibroblast activation protein alpha (hFAP) (Q12884 38-760): as the sequence (Q12884 38-760) above
Sequence of hFAP (M39-A757) (Q12884 39-757): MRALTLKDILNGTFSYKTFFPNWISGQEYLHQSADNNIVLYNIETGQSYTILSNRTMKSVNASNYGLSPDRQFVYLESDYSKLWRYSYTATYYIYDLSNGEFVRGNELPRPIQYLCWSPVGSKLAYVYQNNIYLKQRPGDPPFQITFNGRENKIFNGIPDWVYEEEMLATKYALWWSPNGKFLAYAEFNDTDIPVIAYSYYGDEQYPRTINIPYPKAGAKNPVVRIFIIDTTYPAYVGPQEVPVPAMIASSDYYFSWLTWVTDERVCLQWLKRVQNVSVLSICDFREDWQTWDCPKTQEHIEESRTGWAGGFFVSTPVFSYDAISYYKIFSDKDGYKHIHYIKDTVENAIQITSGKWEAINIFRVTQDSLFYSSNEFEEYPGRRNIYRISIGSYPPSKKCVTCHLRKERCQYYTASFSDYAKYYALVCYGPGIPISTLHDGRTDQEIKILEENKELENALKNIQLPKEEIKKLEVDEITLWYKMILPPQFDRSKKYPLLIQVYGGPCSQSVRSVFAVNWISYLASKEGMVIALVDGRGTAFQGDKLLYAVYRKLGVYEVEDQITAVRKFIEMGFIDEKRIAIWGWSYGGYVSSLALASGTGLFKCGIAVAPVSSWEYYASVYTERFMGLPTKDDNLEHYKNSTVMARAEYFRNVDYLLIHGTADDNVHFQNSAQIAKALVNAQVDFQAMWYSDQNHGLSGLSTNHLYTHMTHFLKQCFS
Protocol for Caco-2 cell permeability: Caco-2 cell permeability was measured as described in Mol Pharm 2017, 14, 1601.
Protocol for Kinetic solubility: Kinetic solubility was measured as described in Comput Aided Mol Des 2015, 29, 795.

For `N#C[C@@H]1CSCN1C(=O)CNC(=O)c1ccnc2ccc(-c3cnn(C4CC4)c3)cc12` [Example 170, (R)—N-(2-(4-Cyanothiazolidin-3-yl)-2-oxoethyl)-6-(1-cyclopropyl-1H-pyrazol-4-yl)quinoline-4-carboxamide], the IC50 was found to be 8.7 nM in data set [1], 0.5 nM against FAP [2] and 260 nM in data set [3]. Besides, the “hFAP Binding assay k(off)” value at hFAP (M39-A757) was determined as 0.00018 s⁻¹. Moreover, on hFAP (M39-A757), the “hFAP Binding assay k(on)” value turned out to be 10000000 M⁻¹ s⁻¹.
On to `COC1CCN(c2ccc3nccc(C(=O)NCC(=O)N4CSC[C@H]4C#N)c3c2)CC1` [Example 8, (R)—N-(2-(4-Cyanothiazolidin-3-yl)-2-oxoethyl)-6-(4-methoxypiperidin-1-yl)quinoline-4-carboxamide], for which the IC50 on FAP [2] was 0.2 nM; in data set [4] it was above 100 µM.
As for `N#C[C@@H]1CSCN1C(=O)CNC(=O)c1ccnc2ccc(N3CCC4(CCCCC4)OC3=O)cc12` [Example 110, (R)—N-(2-(4-cyanothiazolidin-3-yl)-2-oxoethyl)-6-(2-oxo-1-oxa-3-azaspiro[5.5]undecan-3-yl)quinoline-4-carboxamide], the “rHep CLint” value in [5] was found to be 3.3 μL/min/1E6. Besides, the IC50 in data set [4] is above 100 µM. Besides, in [6], the microsomal CLint worked out at 39 µL/min/mg. In “Kinetic solubility”, this compound showed a solubility of 950 µM (≈ 469 µg/mL).
For `N#C[C@@H]1CSCN1C(=O)CNC(=O)c1ccnc2ccc(N3CCOCC3)cc12` [Example 67, (R)—N-(2-(4-Cyanothiazolidin-3-yl)-2-oxoethyl)-6-morpholinoquinoline-4-carboxamide], the IC50 in data set [1] turned out to be 0.18 nM; on FAP [2] it was 0.52 nM; in [4] it was 33 µM.
The like results for `N#C[C@@H]1CSCN1C(=O)CNC(=O)c1ccnc2ccc(N3CC4(C3)OCCO4)cc12` [Example 163, (R)—N-(2-(4-Cyanothiazolidin-3-yl)-2-oxoethyl)-6-(5,8-dioxa-2-azaspiro[3.4]octan-2-yl)quinoline-4-carboxamide] were, in that order, 3 nM, 0.2 nM and above 100 µM.
Turning to `N#C[C@@H]1CSCN1C(=O)CNC(=O)c1ccnc2ccc(-c3ccc(C(F)F)nc3)cc12` [Example 169, (R)—N-(2-(4-cyanothiazolidin-3-yl)-2-oxoethyl)-6-(6-(difluoromethyl)pyridin-3-yl)quinoline-4-carboxamide], in data set [5], the “rHep CLint” value came to 8.8 μL/min/1E6. Moreover, the IC50 in data set [1] worked out at 1.4 nM; against FAP [7], 0.22 nM; in data set [3], 440 nM; in data set [8] it was 0.057 nM. This compound also gave a microsomal CLint in data set [6] (setting [11]) of 18 µL/min/mg. Also, on hFAP (M39-A757), the “hFAP Binding assay k(off)” value worked out at 0.00096 s⁻¹. Besides, the “hFAP Binding assay k(on)” value at hFAP (M39-A757) stood at 6200000 M⁻¹ s⁻¹. The compound also had a Kd at hFAP (M39-A757) of 0.16 nM. Further, in “Kinetic solubility” (setting [12]), the concentration in solution (solubility) came to 26 µM (≈ 11.8 µg/mL).
Take `COC1(C)CN(c2ccc3nccc(C(=O)NCC(=O)N4CSC[C@H]4C#N)c3c2)C1` [Example 151, (R)—N-(2-(4-Cyanothiazolidin-3-yl)-2-oxoethyl)-6-(3-methoxy-3-methylazetidin-1-yl)quinoline-4-carboxamide]: the IC50 in data set [1] is 3.3 nM; against FAP [2] it was 0.4 nM; in data set [4], above 100 µM.
Consider `N#C[C@@H]1CSCN1C(=O)CNC(=O)c1ccnc2ccc(N3CCC4(CCCC4)OC3=O)cc12` [Example 111, (R)—N-(2-(4-cyanothiazolidin-3-yl)-2-oxoethyl)-6-(7-oxo-6-oxa-8-azaspiro[4.5]decan-8-yl)quinoline-4-carboxamide], for which the IC50 in [4] is above 100 µM.
As to `N#C[C@@H]1CSCN1C(=O)CNC(=O)c1ccnc2ccc(N3C[C@@H](F)[C@@H](F)C3)cc12` [Example 50, N-(2-((R)-4-Cyanothiazolidin-3-yl)-2-oxoethyl)-6-((3R,4S)-3,4-difluoropyrrolidin-1-yl)quinoline-4-carboxamide], in [5], the “rHep CLint” value was determined as 20 μL/min/1E6. In addition, the IC50 was 0.3 nM against FAP [9]; 0.5 nM at FAP [2]; 0.34 nM at FAP [7]; 540 nM in data set [3]; 0.069 nM in data set [8]. For the same compound, the Papp A→B in “Caco-2 cell permeability” was 0.83 ×10⁻⁶ cm/s. Further, the Papp B→A in the data set “Caco-2 cell permeability” turned out to be 27 ×10⁻⁶ cm/s. Besides, the efflux ratio in “Caco-2 cell permeability” stood at 32. Further, the microsomal CLint in data set [6] (setting [11]) is 13 µL/min/mg. The Kd on hFAP (M39-A757) is 0.071 nM. The solubility in “Kinetic solubility” (setting [12]) was found to be 33 µM (≈ 14.2 µg/mL). Besides, the “hHep CLint” value in [10] was 1.7 μL/min/1E6.
Turning to `Cc1nn(C)cc1-c1ccc2nccc(C(=O)NCC(=O)N3CSC[C@H]3C#N)c2c1` [Example 171, (R)—N-(2-(4-Cyanothiazolidin-3-yl)-2-oxoethyl)-6-(1,3-dimethyl-1H-pyrazol-4-yl)quinoline-4-carboxamide], the figures for the IC50 (in data set [1]; against FAP [2]; in data set [4]) were 2.5 nM, 0.3 nM and above 100 µM, respectively.
As to `N#C[C@@H]1CSCN1C(=O)CNC(=O)c1ccnc2ccc(N3CCC(F)CC3)cc12` [Example 205, (R)—N-(2-(4-Cyanothiazolidin-3-yl)-2-oxoethyl)-6-(4-fluoropiperidin-1-yl)quinoline-4-carboxamide], the results for the IC50 (in [1]; on FAP [2]; in data set [3]) were 1.2 nM, 0.3 nM and 640 nM, respectively. Also, the “hFAP Binding assay k(off)” value on hFAP (M39-A757) came to 0.000046 s⁻¹. The “hFAP Binding assay k(on)” value on hFAP (M39-A757) came out at 2100000 M⁻¹ s⁻¹.
Regarding `N#C[C@@H]1CSCN1C(=O)CNC(=O)c1ccnc2ccc(N3CC(CF)C3)cc12` [Example 113, (R)—N-(2-(4-Cyanothiazolidin-3-yl)-2-oxoethyl)-6-(3-(fluoromethyl)azetidin-1-yl)quinoline-4-carboxamide], the “rHep CLint” value in data set [5] was determined as 11 μL/min/1E6. In addition, 0.2 nM corresponded to half-maximal inhibition against FAP [9] (IC50). The compound also gave an IC50 in [1] of 2 nM. The same compound registered an IC50 at FAP [2] of 0.5 nM. In “Caco-2 cell permeability”, the apparent permeability (Papp) is 20 ×10⁻⁶ cm/s, the Papp A→B is 1.9 ×10⁻⁶ cm/s, the Papp B→A is 23 ×10⁻⁶ cm/s and the efflux ratio was found to be 12. Besides, half-maximal inhibition on FAP [7] (IC50) was put at 0.25 nM. In data set [6] (setting [11]), this compound returned a microsomal CLint below 3 µL/min/mg. The IC50 in data set [3] was 490 nM. In addition, on hFAP (M39-A757), the “hFAP Binding assay k(off)” value came out at 0.000045 s⁻¹; the “hFAP Binding assay k(on)” value was determined as 1500000 M⁻¹ s⁻¹; the affinity, expressed as Kd, was 0.031 nM. The compound also registered an IC50 in [8] of 0.12 nM. Further, the concentration in solution in the data set “Kinetic solubility” (setting [12]) (solubility) came to 71 µM (≈ 29.4 µg/mL). Moreover, in data set [10], the “hHep CLint” value is below 1.5 μL/min/1E6.

By IC50 is commonly meant the concentration that inhibits the measured activity by half. By microsomal CLint is commonly meant the capacity of the preparation to metabolise the compound, expressed as a volume cleared per time. The term solubility denotes how much of the substance goes into solution per volume. Lower therefore signals little dissolved substance. Broadly, the Kd is the constant that tells how readily two partners part at equilibrium. Usually Papp A→B stands for the apparent permeability from the apical to the basolateral side of a cell layer. Broadly, the Papp B→A is how fast a substance crosses the layer from the basolateral side. For orientation: efflux ratio means a quotient of directional permeabilities that is used to spot active efflux. In general, Papp refers to the rate of passage across a membrane or cell layer, normalised by area and donor concentration. Lower therefore signals slow passage.

Source of the values: patent US20230312550A1, “N-(2-(4-CYANOTHIAZOLIDIN-3-YL)-2-OXOETHYL)-QUINOLINE-4-CARBOXAMIDES” (AstraZeneca AB, priority 2020, published 2023).
